What was measured:
Type in all cases: cell-based
[1] = biological target: T1, 17-beta-hydroxysteroid dehydrogenase type 3 (Homo sapiens, UniProt P37058); assay: Inhibitory concentration against type-3 17-beta-HSD expressed in HEK293 cells
T1 sequence (P37058 whole entry): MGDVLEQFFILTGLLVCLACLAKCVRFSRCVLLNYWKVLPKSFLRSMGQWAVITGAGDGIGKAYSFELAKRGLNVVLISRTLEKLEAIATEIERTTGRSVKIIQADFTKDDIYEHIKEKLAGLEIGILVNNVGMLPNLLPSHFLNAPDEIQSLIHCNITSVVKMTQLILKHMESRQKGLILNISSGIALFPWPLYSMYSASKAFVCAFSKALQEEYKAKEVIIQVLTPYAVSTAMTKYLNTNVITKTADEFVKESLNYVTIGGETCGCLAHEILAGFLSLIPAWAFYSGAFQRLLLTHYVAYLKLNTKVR

[2] = biological target: T2, 17-beta-hydroxysteroid dehydrogenase type 3 (Homo sapiens) (UniProt P37058); assay: Percent inhibition against type-3 17-beta-HSD expressed in HEK293 cells at 3 uM
T2 sequence (whole entry): T1 sequence (P37058 whole entry)

[3] = biological target: T2, 17-beta-hydroxysteroid dehydrogenase type 3 (Homo sapiens); assay: Percent inhibition against type-3 17-beta-HSD expressed in HEK293 cells at 0.3 uM

SMILES | IC50 [1] [µM] | inhibition [2] [%] | inhibition [3] [%]
CCCCCC[C@@]1(O)CC[C@@]2(C)C(CC[C@@H]3[C@@H]2CC[C@]2(C)C(=O)CC[C@@H]32)C1 (stereo partly drawn) | 0.1 | 96 | 93
CCC(C)[C@@]1(O)CC[C@@]2(C)C(CC[C@@H]3[C@@H]2CC[C@]2(C)C(=O)CC[C@@H]32)C1 (stereo partly drawn) | 0.073 | 90 | 85
C[C@]12CC[C@](O)(Cc3ccccc3)CC1CC[C@@H]1[C@@H]2CC[C@]2(C)C(=O)CC[C@@H]12 (stereo partly drawn) | 0.057 | 94 | 90
C[C@]12CC[C@](O)(c3ccccc3)CC1CC[C@@H]1[C@@H]2CC[C@]2(C)C(=O)CC[C@@H]12 (stereo partly drawn) | 0.081 | 95 | 88
C[C@@]1(O)CC[C@@]2(C)C(CC[C@@H]3[C@@H]2CC[C@]2(C)C(=O)CC[C@@H]32)C1 (stereo partly drawn) | – | 93 | 72
C[C@]12CC[C@](O)(CC3CCCCC3)CC1CC[C@@H]1[C@@H]2CC[C@]2(C)C(=O)CC[C@@H]12 (stereo partly drawn) | 0.087 | 95 | 93
C[C@]12CC[C@](O)(CCc3ccccc3)CC1CC[C@@H]1[C@@H]2CC[C@]2(C)C(=O)CC[C@@H]12 (stereo partly drawn) | 0.099 | 93 | 93
C[C@]12CC[C@](O)(C3CCCCC3)CC1CC[C@@H]1[C@@H]2CC[C@]2(C)C(=O)CC[C@@H]12 (stereo partly drawn) | 0.097 | 93 | 88
CCC[C@@]1(O)CC[C@@]2(C)C(CC[C@@H]3[C@@H]2CC[C@]2(C)C(=O)CC[C@@H]32)C1 (stereo partly drawn) | 0.067 | 94 | 89
C[C@]12CC[C@@H](O)C[C@H]1CC[C@@H]1[C@@H]2CC[C@]2(C)C(=O)CC[C@@H]12 [ETIOCHOLANOLONE] | 0.33 | 88 | 50
CCCCCCCC[C@@]1(O)CC[C@@]2(C)C(CC[C@@H]3[C@@H]2CC[C@]2(C)C(=O)CC[C@@H]32)C1 (stereo partly drawn) | 0.147 | 92 | 88
C[C@]12CC[C@](O)(CCC3CCCCC3)CC1CC[C@@H]1[C@@H]2CC[C@]2(C)C(=O)CC[C@@H]12 (stereo partly drawn) | 0.06 | 93 | 92
C[C@]12CCC(=O)C=C1CC[C@@H]1[C@@H]2CC[C@]2(C)C(=O)CC[C@@H]12 [ANDROSTENEDIONE] | 0.758 | 78 | 24
